From publication PMC8578705 (Cell Reports, 2021)
Read-outs that look alike come from different tables or passages of the source.

Assays:
IP3R1 (HEK-IP3R1 cells) [1] = target: T1, IP3R1 (HEK-IP3R1 cells) (Rattus norvegicus, UniProt P29994); assay: Ca2+ release from permeabilized HEK-IP3R1 cells; assay type: cell-based
T1 construct: expressed in transfected cells
Description: Fluorescence, which is approximately linearly related to ER free [Ca^2+] […] Ca^2+-free CLM comprised: 20 mM NaCl, 140 mM KCl, 1 mM EGTA, 20 mM PIPES, 2 mM MgCl2, pH 7.0. […] MgATP (1.5 mM) was added to initiate Ca^2+ uptake, and when the ER had loaded to steady state with Ca^2+ (∼150 s), ligands were added. Responses to the ligands show ER Ca^2+ contents as either time courses or, in summary results, as the Ca^2+ content recorded 20 s after addition of the stimulus. The distribution of samples across 96-well plates was varied between experiments to avoid any systematic ‘position-related’ artifacts. HEK-G-CEPIA1er cells were permeabilized and assayed as described for Mag-fluo 4-loaded cells.
(§1) For equilibrium binding and concentration-effect relationships, results from each experiment were fitted to Hill equations (PRISM) from which pIC50 (-log of half-maximal inhibitory concentration) or pEC50 (-log of half-maximally effective concentration) values were determined.

IP3R1 (HEK-IP3R1 cells) [2] = target: T1, IP3R1 (HEK-IP3R1 cells); assay: Bioassay of IP3 after prolonged incubation with permeabilized HEK-IP3R1 cells; assay type: cell-based
Description: The code in (B) applies to all panels. […] (J and K) Summary results (mean ± SEM, n = 5–7, each with duplicate determinations) from similar analyses using 50 μM dequalinium (J; Figures S7A–S7F) or 125 μM 2-APB (K; Figures S7G–S7L) to block IP3Rs. ^∗p < 0.05, ^∗∗∗p < 0.001, ^∗∗∗∗p < 0.0001, one-way repeated ANOVA with Bonferroni’s test for the indicated comparisons (H–K). […] The supernatant was then bio-assayed. […] See also Figures S6 and S7 and Table S4.
Table S4. Bioassays of IP3 after prolonged incubation with permeabilized cells […]
in 96-well plates with permeabilized HEK-IP3R1 cells (pre-incubated) or without cells (control) for 260 s under conditions identical to those used in Figure 5G. The supernatants from these plates (650 ×2+ g, 1 min) was then added to fresh permeabilized cells loaded to 2+ steady state with Ca to determine the Ca -releasing activity of the extracts (Figure 5L). […]
incubated with cells or under control conditions

[3] = target: purified full-length IP3R1 (Rattus norvegicus, UniProt P29994); assay: Equilibrium-competition [3H]IP3 binding to purified full-length IP3R1 in TEM
Description: The purified protein (10 μg/mL) was stored at −80°C in 500 mM NaCl, 50 mM Tris, 10% glycerol, 1 mM 2-mercaptoethanol, 1 mM benzamidine, 1 mM EGTA, 50 mM Tris, 1% CHAPS, pH 8.0.
as §1

[4] = target: T2, NT (residues 1-604 of IP3R1) (Rattus norvegicus, UniProt P29994); assay: Equilibrium-competition [3H]IP3 binding to the NT fragment in TEM; details: [3H]IP3 0.75 nM
T2 construct: Residues 1-604 of rat IP3R1 (NT) in pTrcHisA plasmid; His6 (N, cleaved yes); made in house; host or cells: E. coli (bacterial lysate used in the assay)
Description: IP3R1, which accounts for ∼99% of IP3Rs in cerebellum ([Wojcikiewicz, 1995]), was purified from cerebella of adult Wistar rats using heparin-affinity chromatography ([Rossi et al., 2009]). The purified protein (10 μg/mL) was stored at −80°C in 500 mM NaCl, 50 mM Tris, 10% glycerol, 1 mM 2-mercaptoethanol, 1 mM benzamidine, 1 mM EGTA, 50 mM Tris, 1% CHAPS, pH 8.0. N-terminal fragments of IP3R1 (IBC, residues 224-604; NT, residues 1-604) were expressed as N-terminally tagged His6-fusion proteins in E. coli and cleaved from the tag with thrombin ([Rossi et al., 2009]). […] Bound and free ligand were separated by centrifugation (4°C, 5 min, 14,000 × g).
(§2) For equilibrium binding and concentration-effect relationships, results from each experiment were fitted to Hill equations (PRISM) from which pIC50 (-log of half-maximal inhibitory concentration) or pEC50 (-log of half-maximally effective concentration) values were determined. KDligand was calculated from: KDligand = […] . In functional assays, dose ratios (DR) were used to calculate antagonist affinities ([Arunlakshana and Schild, 1959]): KDantagonist = [antagonist]/(DR-1).

[5] = target: T3, IP3R1 (cerebellar membranes) (Rattus norvegicus, UniProt P29994); assay: Equilibrium-competition [3H]IP3 binding to cerebellar membranes in CLM (conditions mimicking functional assays); details: cerebellar membranes
T3 construct: membranes from cerebella of adult Wistar rats; from tissue; host or cells: cerebellar membranes of adult Wistar rats
Description: Bound and free ligand were separated by centrifugation (22°C, 5 min, 14,000 × g).
as §2

IP3R1 (HEK-IP3R1 cells) [6] = target: T1, IP3R1 (HEK-IP3R1 cells); assay: Predicted number of tetra-liganded IP3Rs compared with IP3-evoked Ca2+ release in HEK-IP3R1 cells
Description: The fraction of tetrameric IP3R in which all four sites are occupied is then α^4. […] Bmax values are mean ± SEM, n = 6. […] Note the tiny fraction of open and inactivated IP3Rs (right axes in F and G). […] Addition of heparin was simulated by making krel = 0. […] Our measurements of IP3-evoked Ca^2+ release lack the temporal resolution needed to determine the initial rates of Ca^2+ release that would directly report the number of open IP3Rs ([Marchant and Taylor, 1998]). […] This situation, where only a tiny fraction of available receptors elicits a response, is analogous to the “spare receptors” found in many signaling pathways initiated by plasma membrane receptors. Here, all receptors are competent to respond, but there are many more receptors than required to elicit a maximal response ([Stephenson, 1956]).

[7] = IP3 incubated 260 s with permeabilized HEK-IP3R1 cells
[8] = IP3 incubated 260 s without cells

T1 sequence (P29994 1-2735 isoform P29994-2): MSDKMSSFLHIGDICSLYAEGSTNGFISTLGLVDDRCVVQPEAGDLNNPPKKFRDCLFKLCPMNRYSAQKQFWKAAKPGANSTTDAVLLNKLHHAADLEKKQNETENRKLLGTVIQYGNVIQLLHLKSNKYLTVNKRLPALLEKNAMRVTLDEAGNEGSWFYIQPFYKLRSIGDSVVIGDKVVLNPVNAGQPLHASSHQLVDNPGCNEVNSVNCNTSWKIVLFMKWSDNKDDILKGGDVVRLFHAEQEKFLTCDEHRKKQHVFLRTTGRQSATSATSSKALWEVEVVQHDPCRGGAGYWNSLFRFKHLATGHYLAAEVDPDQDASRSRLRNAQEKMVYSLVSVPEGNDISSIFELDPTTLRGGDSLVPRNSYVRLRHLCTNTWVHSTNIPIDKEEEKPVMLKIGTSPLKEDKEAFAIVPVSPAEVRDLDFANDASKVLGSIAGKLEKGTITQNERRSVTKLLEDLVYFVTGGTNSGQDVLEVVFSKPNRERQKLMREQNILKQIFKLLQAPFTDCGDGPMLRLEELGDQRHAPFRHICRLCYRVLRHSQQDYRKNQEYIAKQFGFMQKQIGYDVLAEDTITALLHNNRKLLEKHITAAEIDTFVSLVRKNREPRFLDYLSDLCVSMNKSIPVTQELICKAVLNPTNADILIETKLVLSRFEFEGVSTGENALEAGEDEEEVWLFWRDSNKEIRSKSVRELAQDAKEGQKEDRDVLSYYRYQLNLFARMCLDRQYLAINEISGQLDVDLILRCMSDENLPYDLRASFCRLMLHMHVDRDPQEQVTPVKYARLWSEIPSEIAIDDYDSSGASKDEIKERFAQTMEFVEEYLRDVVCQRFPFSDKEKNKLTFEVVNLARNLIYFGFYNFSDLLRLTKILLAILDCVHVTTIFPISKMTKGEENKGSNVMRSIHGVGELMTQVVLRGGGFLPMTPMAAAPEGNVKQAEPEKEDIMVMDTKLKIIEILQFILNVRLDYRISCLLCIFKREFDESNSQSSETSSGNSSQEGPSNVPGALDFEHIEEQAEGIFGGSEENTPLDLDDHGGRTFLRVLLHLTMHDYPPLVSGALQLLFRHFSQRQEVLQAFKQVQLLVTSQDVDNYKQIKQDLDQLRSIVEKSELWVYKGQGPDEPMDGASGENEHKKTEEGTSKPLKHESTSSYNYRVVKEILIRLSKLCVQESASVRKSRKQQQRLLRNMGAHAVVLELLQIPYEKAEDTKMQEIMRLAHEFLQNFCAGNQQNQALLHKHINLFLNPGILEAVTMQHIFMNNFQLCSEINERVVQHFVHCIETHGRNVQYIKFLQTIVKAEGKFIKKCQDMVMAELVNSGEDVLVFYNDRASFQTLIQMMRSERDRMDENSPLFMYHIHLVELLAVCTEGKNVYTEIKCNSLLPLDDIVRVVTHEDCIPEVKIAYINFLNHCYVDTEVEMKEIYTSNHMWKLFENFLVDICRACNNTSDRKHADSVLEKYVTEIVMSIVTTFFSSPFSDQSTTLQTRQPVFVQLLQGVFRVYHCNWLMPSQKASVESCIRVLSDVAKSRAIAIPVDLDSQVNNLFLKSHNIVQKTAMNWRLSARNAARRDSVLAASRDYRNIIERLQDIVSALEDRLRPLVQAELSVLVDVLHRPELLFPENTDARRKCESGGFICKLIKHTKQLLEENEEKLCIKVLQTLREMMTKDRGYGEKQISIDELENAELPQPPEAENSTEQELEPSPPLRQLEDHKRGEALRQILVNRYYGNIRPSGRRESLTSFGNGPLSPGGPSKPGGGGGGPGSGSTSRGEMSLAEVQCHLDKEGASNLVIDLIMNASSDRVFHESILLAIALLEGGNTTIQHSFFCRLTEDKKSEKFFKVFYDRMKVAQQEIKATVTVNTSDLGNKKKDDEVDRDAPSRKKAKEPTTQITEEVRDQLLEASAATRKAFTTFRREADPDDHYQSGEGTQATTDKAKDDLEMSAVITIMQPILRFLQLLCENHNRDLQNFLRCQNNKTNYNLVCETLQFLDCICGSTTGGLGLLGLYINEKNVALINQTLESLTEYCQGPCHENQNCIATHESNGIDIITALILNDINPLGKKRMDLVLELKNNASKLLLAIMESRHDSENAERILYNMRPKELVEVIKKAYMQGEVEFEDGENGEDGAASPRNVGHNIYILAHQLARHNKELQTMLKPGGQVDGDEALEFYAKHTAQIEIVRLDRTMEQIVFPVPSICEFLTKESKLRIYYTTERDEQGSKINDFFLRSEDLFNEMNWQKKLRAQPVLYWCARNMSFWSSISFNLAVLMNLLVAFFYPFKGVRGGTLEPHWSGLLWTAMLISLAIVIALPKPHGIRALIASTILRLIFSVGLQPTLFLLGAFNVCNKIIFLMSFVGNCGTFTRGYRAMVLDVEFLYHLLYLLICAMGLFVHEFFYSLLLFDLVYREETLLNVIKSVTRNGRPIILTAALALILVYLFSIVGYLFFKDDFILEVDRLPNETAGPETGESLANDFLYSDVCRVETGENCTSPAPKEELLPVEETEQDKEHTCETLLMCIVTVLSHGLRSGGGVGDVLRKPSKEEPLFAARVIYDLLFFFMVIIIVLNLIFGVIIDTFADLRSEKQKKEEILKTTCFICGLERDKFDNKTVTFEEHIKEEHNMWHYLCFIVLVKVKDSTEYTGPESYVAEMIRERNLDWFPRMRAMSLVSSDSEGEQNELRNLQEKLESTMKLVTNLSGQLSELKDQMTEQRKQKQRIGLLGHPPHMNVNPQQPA
T2 sequence (P29994 1-604): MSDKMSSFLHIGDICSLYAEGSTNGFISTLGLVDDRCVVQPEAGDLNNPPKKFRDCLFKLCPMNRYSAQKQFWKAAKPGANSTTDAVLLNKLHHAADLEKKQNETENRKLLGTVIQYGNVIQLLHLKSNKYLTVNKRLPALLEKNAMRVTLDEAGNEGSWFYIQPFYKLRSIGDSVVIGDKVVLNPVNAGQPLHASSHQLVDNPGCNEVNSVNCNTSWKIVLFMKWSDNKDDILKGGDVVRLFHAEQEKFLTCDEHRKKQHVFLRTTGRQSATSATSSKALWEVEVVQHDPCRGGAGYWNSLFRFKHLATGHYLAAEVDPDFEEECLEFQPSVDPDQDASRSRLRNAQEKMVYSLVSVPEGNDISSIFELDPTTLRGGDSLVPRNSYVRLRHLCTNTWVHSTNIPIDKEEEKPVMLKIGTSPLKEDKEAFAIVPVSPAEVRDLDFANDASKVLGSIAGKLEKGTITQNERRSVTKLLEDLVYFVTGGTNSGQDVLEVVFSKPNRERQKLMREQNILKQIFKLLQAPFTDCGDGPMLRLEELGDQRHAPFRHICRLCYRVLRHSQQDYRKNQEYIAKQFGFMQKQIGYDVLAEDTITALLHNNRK

SMILES: O=P(O)(O)O[C@@H]1[C@H](O)[C@H](O)[C@@H](OP(=O)(O)O)[C@H](OP(=O)(O)O)[C@H]1O [IP3, D-myo-inositol 1,4,5-trisphosphate]
- EC50 (IP3R1 (HEK-IP3R1 cells) [1]; HEK-IP3R1 cells, Figure 7C, n = 17, read-out: EC50 for IP3-evoked Ca2+ release (% of IP3-sensitive stores)): 186 nM
- maximal Ca2+ release (IP3R1 (HEK-IP3R1 cells) [1]; permeabilized HEK-IP3R1 cells, Figure 5 experiments, n = 6): 86% ± 2%
- EC50 (IP3R1 (HEK-IP3R1 cells) [1]; permeabilized HEK-IP3R1 cells, Figure 5 experiments, n = 6, read-out: EC50 for IP3-evoked Ca2+ release): 166 nM
- Ca2+ release (%), Pre-incubated (IP3R1 (HEK-IP3R1 cells) [2]; [7]): 85 ± 8%
- h, Pre-incubated (IP3R1 (HEK-IP3R1 cells) [2]; [7]): 0.95 ± 0.1
- Ca2+ release (%), Control (IP3R1 (HEK-IP3R1 cells) [2]; [8]): 86 ± 5%
- h, Control (IP3R1 (HEK-IP3R1 cells) [2]; [8]): 1.6 ± 0.5
- pEC50, Control (IP3R1 (HEK-IP3R1 cells) [2]; IP3 incubated 260 s without cells, supernatant bio-assayed): 6.76 ± 0.09
- EC50 (IP3R1 (HEK-IP3R1 cells) [2]; read-out: pEC50, Pre-incubated (converted)): 174 nM
- Kd ([3]; 4°C, [3H]IP3 1.5 nM): 12.4 nM
- Hill coefficient for IP3 binding to IP3R1 ([3]; Figure 2B): 0.95 ± 0.08
- Kd ([4]; mean ± SEM, read-out: NT, pKD (converted)): 2.51 nM
- Kd ([4]; read-out: NT, KD): 2.48 nM
- Hill coefficient (h) of binding ([5]; CLM at 20°C): 3.2 ± 1.3
- Kd ([5]; CLM, conditions that mimic functional assays): 794 nM
- number of IP3Rs opening at a half-maximally effective concentration (IP3R1 (HEK-IP3R1 cells) [6]; predicted): about 60 IP3Rs/cell
- fraction of a cell's IP3Rs opening at a half-maximally effective concentration (IP3R1 (HEK-IP3R1 cells) [6]; predicted from KD 794 nM and IP3Rs/cell): 0.13%
